Test system: weaned piglet
Settings: piglets
Procedure: According to the weight, sex, litter, the 60 weaned piglets were randomly divided into five groups. Group 1 is the control group using corn-soybean meal-dray whey powder diet with adding 150 mg/kg of basic copper chloride but without adding selenium. Group 2 and 3 are testing group using corn-soybean meal-dray whey powder diet with adding 0.3 mg/kg and 0.5 mg/kg of sodium selenite respectively, and adding 150 mg/kg of basic copper chloride. […] The testing period is 35 days, including 7 days of pre-test period and 28 days of formal test period.

With `O=[Se](O)O` [sodium selenite] the “selenium level of kidney compared with control group” value (0.3 and 0.5 mg/kg in diet) was “significantly higher”, the “selenium level of liver compared with control group” value (0.3 and 0.5 mg/kg in diet) was “significantly higher” and the “copper content in liver among groups” value (all groups) was “almost the same”.

— patent US8518466B2 (Shenzhen Hazardous Waste Treatment Station Ltd., priority 2008, dated 2013)
